Reference: patent US10206907B2, “Compounds useful for the treatment of degenerative and inflammatory diseases” (GALAPAGOS NV, priority 2008, dated 2019)

Key:
[1] = target: Recombinant human JAK1 catalytic domain (Homo sapiens (Human), UniProt P23458); test: JAK1 inhibition assay; format: biochemical; details: semi-quantitative score
Procedure, shortened: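 IC50 values come from dose-response series, with each point expressed as percent inhibition of cpm. Vehicle sets full activity and 10 μM staurosporine sets background. Incorporated radioactivity counted by scintillation after washing with 75 mM phosphoric acid.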

[2] = target: Recombinant human JAK2 catalytic domain (Homo sapiens (Human), UniProt O60674); test: JAK2 inhibition assay; format: biochemical; details: semi-quantitative score
Procedure, shortened: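 Activity was taken as vehicle cpm minus cpm with 10 μM staurosporine, and inhibition was expressed on that scale. Incubation was 90 min at 30 °C, followed by acid quench, phosphoric acid washes and Microscint counting. Compounds were tested as dose series to obtain IC50.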

[3] = target: Recombinant human JAK3 catalytic domain (Homo sapiens (Human), UniProt P52333); test: JAK3 inhibition assay; format: biochemical; details: semi-quantitative score
Procedure: Plates were washed 6 times with 300 μL per well of a 75 mM phosphoric acid solution and the bottom of the plates was sealed. 40 μL/well of Microscint-20 was added, the top of the plates was sealed and readout was performed using the Topcount (Perkin Elmer). Kinase activity was calculated by subtracting counts per minute (cpm) obtained in the presence of a positive control inhibitor (10 μM staurosporine) from cpm obtained in the presence of vehicle. The ability of a test compound to inhibit this activity was determined as: Percentage inhibition=((cpm determined for sample with test compound present−cpm determined for sample with positive control inhibitor) divided by (cpm determined in the presence of vehicle−cpm determined for sample with positive control inhibitor))*100%.
Dose dilution series were prepared for the compounds enabling the testing of dose-response effects in the JAK3 assay and the calculation of the IC50 for each compound.

[4] = test system: JAK-STAT signalling in HeLa cells; test: JAK-STAT signalling assay (OSM-triggered pSTAT1(2)-luciferase reporter in HeLa cells); format: cell-based; details: Homo sapiens; HeLa cells, OSM-triggered pSTAT1(2)-luciferase reporter; read-out: STAT signalling EC50
Procedure, shortened: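 Read-out is oncostatin M–driven pSTAT1(2)-luciferase activity, corrected by co-transfected LacZ β-galactosidase, in transiently transfected HeLa cells cultured overnight at 37 °C, 10% CO2. Inhibition percentages against positive and negative controls were plotted across doses to derive EC50.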

MMP13 in SW1353 cells = test: OSM/IL-1β signaling assay (MMP13 levels in SW1353 cells); format: cell-based; details: Homo sapiens; SW1353 cells, OSM and IL-1β triggered, MMP13 levels 48 hours after triggering; read-out: MMP13 EC50;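 note: secreted MMP13 captured by antibody, activated with APMA and its activity read by fluorescence, inhibition scaled between vehicle-treated triggered wells (0%) and untriggered wells (100%)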
[5] = Microsomal stability, human liver microsomes; format: in vitro ADME; details: percentage of compound remaining after 60 minutes, 3 μM compound
Procedure, shortened: (§1)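 Percent parent remaining after 60 min was determined by LCMS against a time-zero sample quenched before microsome addition. Incubations ran at 37°C with liver microsomes and a G6PDH-based NADPH-regenerating cofactor mix. Quench was MeOH or ACN (1:1).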

[6] = Microsomal stability, rat liver microsomes; format: in vitro ADME; details: percentage of compound remaining after 60 minutes, 3 μM compound
Procedure, shortened: as §1

[7] = Caco2 permeability (bi-directional); format: in vitro ADME, human; details: human, pH 7.4; for Papp A→B at 1 h, 10 µM: Caco-2, apical to basolateral, read-out: Papp (A2B); for efflux ratio at 1 h, 10 µM: Caco-2, ratio of PappB>A/PappA>B
Procedure: Bi-directional Caco-2 assays were performed as described below.
2×10^5 cells/well were seeded in plating medium consisting of DMEM+GlutaMAXI+1% NEAA+10% FBS (FetalClone II)+1% Pen/Strep. The medium was changed every 2-3 days.
50 μM Lucifer Yellow (Sigma) was added to the donor buffer in all wells to assess integrity of the cell layers by monitoring Lucifer Yellow permeation. As Lucifer Yellow (LY) cannot freely permeate lipophilic barriers, a high degree of LY transport indicates poor integrity of the cell layer.
After a 1 hour incubation at 37° C. while shaking at an orbital shaker at 150 rpm, 70 μL aliquots were taken from both apical (A) and basal (B) chambers and added to 100 μL1 50:50 acetonitrile:water solution containing analytical internal standard (0.5 μM carbamazepine) in a 96 well plate.
Concentrations of compound in the samples were measured by high performance liquid-chromatography/mass spectroscopy (LC-MS/MS).
The Efflux ratios, as an indication of active efflux from the apical cell surface, were calculated using the ratio of PappB>A/PappA>B.
The following assay acceptance criteria were used:
Lucifer yellow permeability: ≤100 nm/s

Chain of Recombinant human JAK2 catalytic domain (O60674 808-1132): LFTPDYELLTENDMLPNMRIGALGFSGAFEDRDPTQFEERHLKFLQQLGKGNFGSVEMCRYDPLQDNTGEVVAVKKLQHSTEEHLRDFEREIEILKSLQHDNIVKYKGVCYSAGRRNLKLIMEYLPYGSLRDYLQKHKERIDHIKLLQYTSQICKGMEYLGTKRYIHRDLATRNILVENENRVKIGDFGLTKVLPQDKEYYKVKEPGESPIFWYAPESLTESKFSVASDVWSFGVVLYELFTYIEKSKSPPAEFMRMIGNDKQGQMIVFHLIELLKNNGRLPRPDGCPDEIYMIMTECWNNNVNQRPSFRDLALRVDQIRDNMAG
Chain of Recombinant human JAK3 catalytic domain (P52333 781-1124): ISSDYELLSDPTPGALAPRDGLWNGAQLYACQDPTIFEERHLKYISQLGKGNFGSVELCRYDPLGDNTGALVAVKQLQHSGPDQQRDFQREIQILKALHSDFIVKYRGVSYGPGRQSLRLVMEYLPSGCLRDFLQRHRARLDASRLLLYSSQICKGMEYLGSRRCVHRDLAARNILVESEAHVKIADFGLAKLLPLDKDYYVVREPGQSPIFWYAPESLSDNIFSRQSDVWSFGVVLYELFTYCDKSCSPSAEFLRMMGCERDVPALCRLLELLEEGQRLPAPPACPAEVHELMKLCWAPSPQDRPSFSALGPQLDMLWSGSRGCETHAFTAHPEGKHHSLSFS
Chain of Recombinant human JAK1 catalytic domain (P23458 850-1154): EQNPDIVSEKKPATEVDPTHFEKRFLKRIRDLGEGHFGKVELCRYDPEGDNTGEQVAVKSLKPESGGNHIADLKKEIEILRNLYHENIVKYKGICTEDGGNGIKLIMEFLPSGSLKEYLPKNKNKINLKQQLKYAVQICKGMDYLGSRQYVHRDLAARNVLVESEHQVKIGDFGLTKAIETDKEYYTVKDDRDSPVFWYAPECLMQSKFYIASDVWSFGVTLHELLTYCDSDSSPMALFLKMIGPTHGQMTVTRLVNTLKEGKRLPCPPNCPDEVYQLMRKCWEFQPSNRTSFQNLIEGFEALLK

IC50 [1] [nM] | IC50 [2] [nM] | IC50 [3] [nM] | EC50 [4] [nM] | EC50 (MMP13 in SW1353 cells) [nM] | Microsomal Stability Human (%) [5] | Microsomal Stability Rat (%) [6] | Papp A→B at 1 h, 10 µM [7] [×10⁻⁶ cm/s] | efflux ratio at 1 h, 10 µM [7] | SMILES
101 to 500 | > 1000 | > 1000 |  |  |  |  |  |  | O=C(Nc1nc2cccc(-c3ccc(N4CCCCC4)nc3)n2n1)C1CC1 [Compound 3, N-(5-(6-(piperidin-1-yl)pyridin-3-yl)-[1,2,4]triazolo[1,5-a]pyridin-2-yl)cyclopropanecarboxamide]
< 100 | 101 to 500 | > 1000 | > 1000 | > 1000 | **** (**** 76-100) | ** (** 26-50) |  |  | O=C(c1ccccc1)c1ccc(-c2cccc3nc(NC(=O)C4CC4)nn23)cc1 [Compound 10, N-(5-(4-benzoylphenyl)-[1,2,4]triazolo[1,5-a]pyridin-2-yl)cyclopropanecarboxamide]
< 100 | 101 to 500 | > 1000 | > 1000 | > 1000 | **** (**** 76-100) | *** (*** 51-75) |  |  | O=C(Nc1nc2cccc(-c3ccc(C(=O)N4CCCC4)cc3)n2n1)C1CC1 [Compound 19, N-(5-(4-(pyrrolidine-1-carbonyl)phenyl)-[1,2,4]triazolo[1,5-a]pyridin-2-yl)cyclopropanecarboxamide]
< 100 | < 100 | > 1000 | 501 to 1000 | > 1000 | * (* 0-25) | * (* 0-25) |  |  | CN(C(=O)c1ccc(-c2cccc3nc(NC(=O)C4CC4)nn23)cc1)c1ccccc1 [Compound 30, 4-(2-(cyclopropanecarboxamido)-[1,2.4]triazolo[1,5-a]pyridin-5-yl)-N-methyl-N-phenylbenzamide]
< 100 |  | > 1000 | > 1000 | > 1000 | * (* 0-25) | **** (**** 76-100) |  |  | CN1CCN(C(=O)c2ccc(-c3cccc4nc(NC(=O)C5CC5)nn34)cc2)CC1 [Compound 71, N-(5-(4-(4-methylpiperazine-1-carbonyl)phenyl)-[1,2,4]triazolo[1,5-a]pyridin-2-yl)cyclopropanecarboxamide]
< 100 | 101 to 500 | > 1000 | > 1000 | 1 to 500 | ** (** 26-50) | ** (** 26-50) |  |  | O=C(Nc1nc2cccc(-c3ccc(NS(=O)(=O)Cc4ccccc4)cc3)n2n1)C1CC1 [Compound 77, N-(5-(4-(phenylmethylsulfonamido)phenyl)-[1,2,4]triazolo[1,5-a]pyridin-2-yl)cyclopropanecarboxamide]
< 100 | 101 to 500 | > 1000 | > 1000 | > 1000 | * (* 0-25) | * (* 0-25) |  |  | CCCc1ccc(S(=O)(=O)Nc2ccc(-c3cccc4nc(NC(=O)C5CC5)nn34)cc2)cc1 [Compound 85, N-(5-(4-(4-propylphenylsulfonamido)phenyl)-[1,2,4]triazolo[1,5-a]pyridin-2-yl)cyclopropanecarboxamide]
< 100 | 101 to 500 | 501 to 1000 |  | > 1000 | ** (** 26-50) | * (* 0-25) |  |  | CC(=O)Nc1ccc(COc2ccc(-c3cccc4nc(NC(=O)C5CC5)nn34)cc2)cc1 [Compound 92, N-(5-(4-(4-acetamidobenzyloxy)phenyl)-[1,2,4]triazolo[1,5-a]pyridin-2-yl)cyclopropanecarboxamide]
< 100 |  | 501 to 1000 | 101 to 500 | > 1000 | ** (** 26-50) | ** (** 26-50) |  |  | CC(Oc1ccc(-c2cccc3nc(NC(=O)C4CC4)nn23)cc1)c1ccccn1 (stereo not drawn) [Compound 189, N-(5-(4-(1-(pyridin-2-yl)ethoxy)phenyl)-[1,2,4]triazolo[1,5-a]pyridin-2-yl)cyclopropanecarboxamide]
< 100 | 101 to 500 |  | > 1000 | > 1000 | **** (**** 76-100) | **** (**** 76-100) | 4.53 | 8.83 | Cn1cnc(COc2ccc(-c3cccc4nc(NC(=O)C5CC5)nn34)cc2)n1 [Compound 199, Cyclopropanecarboxylic acid {5-[4-(1-methyl-1H-[1,2,4]triazol-3-ylmethoxy)-phenyl]-[1,2,4]triazolo[1,5-a]pyridin-2-yl}-amide]
< 100 | 101 to 500 |  | > 1000 | > 1000 | **** (**** 76-100) | **** (**** 76-100) | 0.5 | 36 | O=C(Nc1nc2cccc(-c3ccc(C(=O)N4CCC(O)CC4)cc3)n2n1)C1CC1 [Compound 209, Cyclopropanecarboxylic acid {5-[4-(4-hydroxy-piperidine-1-carbonyl)-phenyl]-[1,2,4]triazolo[1,5-a]pyridin-2-yl}-amide]
< 100 | 101 to 500 |  | > 1000 | 1 to 500 | **** (**** 76-100) | **** (**** 76-100) | 0.45 | 76.2 | N#CC1CCN(C(=O)c2ccc(-c3cccc4nc(NC(=O)C5CC5)nn34)cc2)CC1 [Compound 210, Cyclopropanecarboxylic acid {5-[4-(4-cyano-piperidine-1-carbonyl)-phenyl]-[1,2,4]triazolo[1,5-a]pyridin-2-yl)-amide]
< 100 |  |  | 501 to 1000 | > 1000 | *** (*** 51-75) | ** (** 26-50) | 11.4 | 1.14 | O=C(Nc1nc2cccc(-c3ccc(CN4CCCC(F)C4)cc3)n2n1)C1CC1 (stereo not drawn) [Compound 280, Cyclopropanecarboxylic acid {5-[4-(3-fluoro-piperidin-1-ylmethyl)-phenyl]-[1,2,4]triazolo[1,5-a]pyridin-2-yl}-amide]
< 100 | 101 to 500 |  | > 1000 | > 1000 | *** (*** 51-75) | **** (**** 76-100) | 0.3 | 104 | O=C(Cc1ccc(-c2cccc3nc(NC(=O)C4CC4)nn23)cc1)Nc1cccnc1 [Compound 316, Cyclopropanecarboxylic acid {5-[4-(pyridin-3-ylcarbamoylmethyl)-phenyl)-[1,2,4]triazolo[1,5-a]pyridin-2-yl}-amide]
< 100 | 101 to 500 |  | 501 to 1000 | 501 to 1000 | *** (*** 51-75) | *** (*** 51-75) | 3.2 |  | N#Cc1ccc(COC2CN(C(=O)c3ccc(-c4cccc5nc(NC(=O)C6CC6)nn45)cc3)C2)cc1 [Compound 325, Cyclopropanecarboxylic acid (5-{4-[3-(4-cyano-benzyloxy)-azetidine-1-carbonyl]-phenyl}-[1,2,4]triazolo[1,5-a]pyridin-2-yl)-amide]
